Reference: patent US11285093B2, “Cosmetic uses of swertiamarin” (LUCAS MEYER COSMETICS, priority 2014, dated 2022)

Assays:
human keratinocytes = experiment: Scratch assay on monolayer culture of human keratinocytes; assay type: cell-based; conditions: 72 hours
Description: Normal keratinocytes surgically sampled in a person were cultivated so as to obtain a monolayer culture of keratinocytes.
When confluence was attained, a lesion (“scratch”) was carried out in each cell culture so as to locally remove an equivalent amount of keratinocytes.
Each culture of keratinocytes was then incubated at 37° C. in a humid atmosphere and in the presence of 5% of CO2, in the presence of an adipocyte culture medium conditioned with swertiamarin (0.0025%; 0.005%; 0.0075% by weight), for 72 hours. The swertiamarin was introduced into the adipocyte culture medium by dilution of a stock solution at 10% in DMSO. The final amount of DMSO in the culture media is 0.15%. […]
The surface corresponding to the “lesion” (i.e. to the area where the keratinocytes were removed) was measured before (t=0) and after incubation for each cell culture from photographs obtained by optical microscopy by using the software package Image J.
The results were expressed as a percentage of re-colonized surface relative to the surface observed at t=0.
The statistical significance of the differences obtained between the groups “DMSO Control” and the groups “TGF-β Controls” was evaluated by using the t-test (***: p<0.001). […]

fibronectin = experiment: Fibronectin synthesis by normal human fibroblasts of the dermis (NHDF), ELISA; assay type: cell-based; conditions: 24 h or 48 h
Description: The applied test was based on the synthesis of fibronectin induced by TGF-β by cells of normal human fibroblasts of the dermis (NHDF) in a monolayer culture. The culture was produced by using as a culture medium DMEM (Eurobio, CMODME70-08) containing 10% of fetal calf serum (Eurobio, CVFSV00-0U), 1% of antibiotics (penicillin/streptomycin, Eurobio, CABPES01-OU) and 1% of L-glutamine (Eurobio, CSTGLUOO-OU), at a temperature of 37° C. under 5% of CO2 and 95% of humidity.
The cells were then sown, in the presence of complete DMEM, in microplates in an amount of 2.5*10^4 cells per well and then incubated at a temperature of 37° C. under 5% of CO2 and 95% of humidity. The culture medium was replaced after 24 hours in order to bring the cells to a quiescent state.
Next, the cells were incubated in the presence of TGF-β or swertiamarin for 24 h or 48 h. The cell supernatants were then collected in order to quantify fibronectin by an ELISA test (BMS028, Ebiosciences). The cell viability level was also determined by the standard MTT test. As a control, cells were incubated under the same conditions but in the absence of TGF-β and of swertiamarin (control).
The results are expressed as a percentage of the amount of fibronectin produced per mL relative to the amount of fibronectin produced by the group of control experiments.

[1] = tested on: keratinocyte growth factor (KGF); experiment: KGF quantification by ELISA in culture medium of human adipocytes; assay type: cell-based; conditions: 0.0075% by weight of swertiamarin, 15 hours, normal human adipocytes, vs DMSO control
Description: A stock solution at 10% by weight of swertiamarin in DMSO was prepared. This solution was then diluted in the culture medium so as to obtain a final concentration of 0.0075% by weight of swertiamarin.
A culture of normal human adipocytes, obtained from adipocytes sampled by abdominal plastic surgery in a person, was incubated for 15 hours with the culture medium containing swertiamarin. As a negative control, a culture of adipocytes incubated for 15 hours with a culture medium without any swertiamarin but containing the same amount of DMSO was used.
At the end of the incubation, the amount of KGF was quantified in each culture medium by an ELISA test. The statistical significance of the differences between the “control” groups and the “test groups” was evaluated by variance analysis (One way Anova) followed by the Holm Sida test (p*<0.05).

Description for human skin explants: 21 skin explants with a diameter of 10 mm were prepared from these samples, among which 12 are skin explants without any adipose tissue (epidermis+dermis explant) and 9 are full skin explants (epidermis+dermis+hypodermis). The explants are maintained alive in a BEM medium at 37° C. in the presence of a humid atmosphere with 5% of CO2. The skin explants were distributed into three groups: • Group 1: a cream containing swertiamarin (SWT) in an amount of 0.025% was applied at days 0, 1, 2, 3, 6 and 7 of the incubation, to the surface of the skin explants by means of a spatula (1 μl in the morning and 1 μl in the evening), • Group 2: a placebo cream (free of swertiamarin) was applied on days 0, 1, 2, 3, 6 and 7 of the incubation, to the surface of the skin explants by means of a spatula (1 μl in the mornings and 1 μl in the evenings), • Group 3: this control group was maintained alive without any treatment (without application of a placebo cream or of cream based on swertiamarin).
On day 9, the skin explants are recovered, chemically bound in a formol solution for 24 hours, dehydrated, impregnated with paraffin and then infiltrated with resin according to the SOP H-53 protocol. Fine cuts are then made in each explant and observed by optical microscopy after staining.

Substance	cell re-colonization (re-colonized surface) vs DMSO Control (human keratinocytes; TGF-β 10 ng/ml, p<0.001)	production of fibronectin vs control (fibronectin; TGF-β)	increase of the surface area re-colonized by the keratinocytes vs DMSO Control (human keratinocytes; adipocyte culture medium conditioned with 0.0025% swertiamarin)	increase of the amount of fibronectin vs control (fibronectin; 0.005% swertiamarin)	morphological alteration of treated skin explants (human skin explants)	increase in the average amount of KGF in the culture medium [1]
TGF-β [reference compound]	+124.1%	+64%				
Swertiamarin			+64.6%	more than 171%	do not exhibit any notable morphological alteration	about 16.4%
